The structures appear in SMILES notation.

Data on nine compounds can be found in patent publication US4323576A, “Derivatives of pyrazole for use in therapy” (Morishita Pharmaceutical Co., Ltd., priority 1979, dated 1982).

The test system of one data set is serum lipid. The following applies: Kupiecki et al. 1968; cited from earlier work.
A further data set relates to blood sugar-level. The conditions noted are these: Land et al. 1975; cited from earlier work.
Another data set deals with hypertriglyceridemia. As to the kind of experiment: Pharmacological test against hypertriglyceridemia (fructose-induced). The following applies: serum, male SD rats, oral 3 times, 300 mg/kg as free carboxylic acid, after 48 hours, 10% fructose. The data set is classed as in vivo. On the procedure:
(i) Pharmacological test against hypertriglyceridemia:
The groups were made to be hypertriglyceridemia by giving an aqueous 10% by weight solution of fructose for 2 days, those of control group being given tap water. The administration of six kinds of the present derivatives and of nicotinic acid was as follows:
Each specimen of the present pyrazole derivatives and nicotinic acid was dissolved or dispersed into an aqueous 1% solution of carboxymethylcellulose (CMC) at a predetermined concentration, and the thus prepared solution or dispersion was orally administered 3 times in the volume of 0.5 ml/100 g body weight, that is, first dose just after the commencement of the present test, second dose after 24 hours of the first administration and third dose after 18 hours of the second administration. The dose of each compound was set so that each animal intaked 300 mg/kg of each compound as free carboxylic acid. The rats of control group were given the aqueous 1% solution of CMC only three times at the same intervals as the test groups. All the groups were fed with the same diet during the test period.
After 48 hours of the commencement of the test, blood sample was collected from each animal by amputation of the carotid artery, and serum was separated from the blood sample and frozen to be kept until lipid analysis.
Serum triglyceride was determined by Acetylacetone Method, and the reduction percentage of lipid was calculated by the following formula: [formula] wherein the amount is the average of the group.
Analysis for serum cholesterol:
The content of serum cholesterol was determined by an enzymatic method using cholesteroloxidase, and the reduction percentage of cholesterol was calculated by the following formula: [formula]

In a further data set the test system is hypercholesterolemia. As to the kind of experiment: Pharmacological test against hypercholesterolemia (high cholesterol diet). The data set is classed as in vivo. The conditions noted are these: male SD rats, oral 200 mg/kg/day for 7 days; for Reduction Percentage, Cholesterol in beta-lipoprotein: heparin-calcium precipitation. From the text: (ii) Pharmacological test against hypercholesterolemia:
Three groups of male SD rats each weighing ca. 150 g, each group consisting of five rats were used as the test animals and one group consisting of 10 rats was used as control. All animals were fed a high cholesterol diet consisted of 1% cholesterol, 0.2% sodium cholate, 5% olive oil and commercial diet up to total 100% for 7 days. The test compounds of the present invention and clofibrate, as a medicine for comparison, were respectively dissolved or dispersed in an aqueous 1% solution of CMC so that the volume of the solution or dispersion administered to each animal was 0.5 ml/100 g body weight/time, and the solution or dispersion was orally administered so that the amount of administration of each of the present pyrazole derivative or clofibrate was 200 mg/kg body weight/time. Actually, the administration was carried out once a day for 7 consecutive days. Water was taken ad lib. After 20 hours of fasting from the last administration, blood sample was taken by amputation of the carotid artery and the serum separated was frozen until the analysis of cholesterol shown as follows:
The content of serum cholesterol was determined by the above-mentioned method. The beta-lipoprotein-cholesterol was determined by "heparin-calcium precipitation method". The reduction percentages of cholesterol in serum and beta-lipoprotein were calculated in the same manner as above.

For another data set, the system named is patients. The conditions noted are these: administration to patients; cited from earlier work.

As for `Cc1cc(C(=O)O)n[nH]1` [5-Methylpyrazol-3-carboxylic acid], in the data set with serum lipid, the “activity to reduce the level of serum lipid” value is recorded as “activity to reduce the level of serum lipid”. In addition, in the data set with blood sugar-level, the “clinical effect in treatment of hyperlipemia” value is given as “uncertainty of the derivative's clinical effect in treatment of hyperlipemia” and the “side effect on blood sugar level” value is listed as “causing the reduction of blood sugar-level”.
Regarding `CCCCCCCc1cc(C(=O)O)n[nH]1` [5-n-heptylpyrazole-3-carboxylic acid], in the data set with hypertriglyceridemia, the “Reduction Percentage, Cholesterol” value worked out at 12.5% and the “Reduction Percentage, Triglyceride” value was determined as 40.6%.
As for `CCCCCCCCCc1cc(C(=O)O)n[nH]1` [5-n-nonylpyrazole-3-carboxylic acid], in the data set on hypertriglyceridemia, the “Reduction Percentage, Cholesterol” value came to 12.2% and the “Reduction Percentage, Triglyceride” value stood at 66.5%. For the same compound, in the data set with hypercholesterolemia, the “Reduction Percentage, Cholesterol in serum” value worked out at 11.1% and the “Reduction Percentage, Cholesterol in beta-lipoprotein” value amounted to 0.6%.
On to `CCCCCCCCCCCc1cc(C(=O)O)n[nH]1` [5-n-undecylpyrazole-3-carboxylic acid], for which, in the data set with hypertriglyceridemia, the “Reduction Percentage, Cholesterol” value was 40.0% and the “Reduction Percentage, Triglyceride” value is recorded as 69.1%. In the data set on hypercholesterolemia, the “Reduction Percentage, Cholesterol in serum” value stood at 22.8% and the “Reduction Percentage, Cholesterol in beta-lipoprotein” value was 20.1%.
Regarding `CCOC(=O)C(C)(C)Oc1ccc(Cl)cc1` [Clofibrate, reference compound], in the data set with patients, the side effects entry was “causes the diseases in the bile duct system and is in danger of causing cancer”. In the data set on hypercholesterolemia, the “Reduction Percentage, Cholesterol in serum” value is given as -3.5% and the “Reduction Percentage, Cholesterol in beta-lipoprotein” value was -2.0%.
As for `CCCCCCCc1cc(C(=O)OCC)n[nH]1` [Ethyl 5-n-heptylpyrazole-3-carboxylate, ethyl 5-n-heptylpyrazole-3-carboxylate], in the data set with hypertriglyceridemia, the “Reduction Percentage, Cholesterol” value was 2.1% and the “Reduction Percentage, Triglyceride” value amounted to 41.1%.
For `CCCCCCCCCc1cc(C(=O)OCC)n[nH]1` [Ethyl 5-n-nonylpyrazole-3-carboxylate, ethyl 5-n-nonylpyrazole-3-carboxylate] the same measures were 29.5% and 63.1%.
On to `CCCCCCCCCCCc1cc(C(=O)OCC)n[nH]1` [Ethyl 5-n-undecylpyrazole-3-carboxylate, ethyl 5-n-undecylpyrazole-3-carboxylate], for which, in the data set on hypertriglyceridemia, the “Reduction Percentage, Cholesterol” value was 53.1% and the “Reduction Percentage, Triglyceride” value worked out at 83.7%.
Take `O=C(O)c1cccnc1` [nicotinic acid, reference compound]: the side effects result in the data set with patients is “causing flushing or eruptions on the face and skin”. In addition, in the data set with hypertriglyceridemia, the “Reduction Percentage, Cholesterol” value came out at 16.4% and the “Reduction Percentage, Triglyceride” value came to 24.1%.
